In publication PMC10970644, “Molecular Pharmacology of Gelsemium Alkaloids on Inhibitory Receptors” (International Journal of Molecular Sciences, 2024):
Where a chain is given by its changes, count along the chain named. Where two headings read alike, the source gives them in different places.

Tests used:
native GlyRs = conditions: cited from earlier work
[1] = in vivo studies; cited from earlier work
Spinal GlyRs = conditions: cited from earlier work
[2] = tested on: recombinant and native GABAARs; conditions: cited from earlier work
α1GlyR F63A = target: T1, α1GlyR F63A (Rattus norvegicus, UniProt P07727, F91A); assay type: cell-based
T1 construct: expressed in transfected cells; host or cells: HEK293 (ATCC CRL-1573)
T1 sequence (P07727 29-457 F91A): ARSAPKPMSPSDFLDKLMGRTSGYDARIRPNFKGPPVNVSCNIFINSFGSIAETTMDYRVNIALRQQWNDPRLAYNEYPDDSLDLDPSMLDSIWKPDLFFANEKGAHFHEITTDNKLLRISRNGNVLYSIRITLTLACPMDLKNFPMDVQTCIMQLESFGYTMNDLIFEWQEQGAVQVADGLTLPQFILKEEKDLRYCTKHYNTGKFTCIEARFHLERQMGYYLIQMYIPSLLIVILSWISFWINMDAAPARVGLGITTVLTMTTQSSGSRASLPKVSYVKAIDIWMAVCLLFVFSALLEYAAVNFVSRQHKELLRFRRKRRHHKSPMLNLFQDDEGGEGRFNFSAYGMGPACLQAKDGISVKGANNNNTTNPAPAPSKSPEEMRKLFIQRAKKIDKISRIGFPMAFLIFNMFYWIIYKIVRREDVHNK
Experimental: (§1) The cells were transfected with plasmids encoding the following proteins: (i). rat GlyR α (1, 2, 3) subunits alone or combined with rat β subunits (Uniprot Accession Numbers: Q546L7, P22771, P20236, P20781); and (ii). rat GABAAR α1 combined with rat β2 and γ2 subunits (Uniprot Accession Numbers: P62813, P63138, P18508). The EGFP expression was used as a marker of successful protein expression. The transfection was performed using Lipofectamine 2000 (Invitrogen, ThermoFisher, Carlsbad, CA, USA) using the fabricant protocol. The plasmids used to express GlyRs and GABAARs have been previously described. To track the successful expression of GlyR β subunits and the GABAA γ2 or β2 subunit, these proteins were subcloned in the pIRES2-EGFP vector. The transfection ratio to obtain β-containing GlyRs was 1:5 of α:β, while the expression of γ2-containing GABAA receptors was 1:2:5 of α:β:γ2 [14, 15]. Chimeric GlyRs were described in a previous report. Site directed mutagenesis was performed by Charm Gene Science Mutagenex LLC. (Cumming, GA, USA). All the constructs were checked by full-length sequencing (SNPSaurus, Eugene, OR, USA).
(§2) In brief, patch electrodes (3–4 MΩ) were pulled from borosilicate glasses in a PC-100 puller (Narishige, Tokyo, Japan); then, they were filled with an intracellular solution, which contained (in mM) 120 CsCl, 8 EGTA, 10 HEPES (pH 7.4), 4 MgCl2, 0.5 GTP, and 2 ATP. The extracellular solution contained (in mM) 140 NaCl, 5.4 KCl, 2.0 CaCl2, 1.0 MgCl2, 10 HEPES (pH 7.4), and 10 glucose. Whole-cell patch-clamp recordings were performed at −60 mV with an Axoclamp 200B (Molecular Devices, Sunnyvale, CA, USA) or with HEKA EPC-10 (HEKA Elektronik GmbH, Reutlingen, Germany) amplifiers. […] Brief (3–5 s) pulses of agonist together with alkaloids were applied to cells. Stock solutions of the alkaloids were prepared in high purity distilled water. Aliquots of these stock solutions were diluted in reservoirs containing extracellular solution. […] The concentration–response curve parameters for the alkaloid inhibition (IC50, nH, and the maximal current inhibition) were obtained from the fitted curve of normalized concentration–response data points to the equation Iagonist = Imax (agonist)nH/((agonist)nH + (EC50)nH). The IC50 curves are best-fit mean ± SE from pooled data. […] The inhibition constant (Ki) was calculated using the Cheng–Prusoff equation (Ki = IC50/((2 + ([Agonist]/EC50)^nH)^1/nH − 1). The concentration of agonist corresponds to the sub-saturating agonist concentration used to obtain the IC50 for each alkaloid on a given GlyR subtype.

α1GlyR G160E = target: T2, α1GlyR G160E (Rattus norvegicus, UniProt P07727, G188E); assay type: cell-based
T2 construct: expressed in transfected cells; host or cells: HEK293 (ATCC CRL-1573)
T2 sequence (P07727 29-457 G188E): T1 sequence (P07727 29-457 F91A) with A63F, G160E
Experimental: as §1, §2

α3 GlyR = target: T3, α3 GlyR (Rattus norvegicus, UniProt P24524); test: cell-based; assay type: cell-based
T3 construct: expressed in transfected cells; host or cells: HEK293 (ATCC CRL-1573)
T3 sequence (P24524 34-464): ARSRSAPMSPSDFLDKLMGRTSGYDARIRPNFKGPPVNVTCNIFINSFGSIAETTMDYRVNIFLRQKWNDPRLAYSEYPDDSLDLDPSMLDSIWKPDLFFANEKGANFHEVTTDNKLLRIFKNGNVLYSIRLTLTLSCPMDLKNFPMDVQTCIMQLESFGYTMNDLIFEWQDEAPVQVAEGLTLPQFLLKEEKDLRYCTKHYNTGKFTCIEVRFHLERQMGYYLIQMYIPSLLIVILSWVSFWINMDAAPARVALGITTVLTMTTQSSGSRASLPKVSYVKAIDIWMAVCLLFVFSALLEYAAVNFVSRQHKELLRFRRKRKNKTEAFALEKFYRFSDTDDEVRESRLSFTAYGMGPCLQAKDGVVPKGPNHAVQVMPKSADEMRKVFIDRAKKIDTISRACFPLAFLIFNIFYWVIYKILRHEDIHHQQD

| Structure (SMILES) | IC50 (native GlyRs) | LD50 [1] | IC50 (Spinal GlyRs) | IC50 [2] | alkaloid sensitivity of glycine-evoked currents (in words) (α1GlyR F63A; F63A, gelsemine 10 μM or 200 μM, 2 mM glycine) | alkaloid sensitivity of glycine-evoked currents (in words) (α1GlyR G160E; G160E, gelsemine 10 μM or 200 μM, 1 mM glycine) | EC50 (α3 GlyR; read-out: EC50 of agonist) | IC50 (α3 GlyR) | nH (α3 GlyR; Hill coefficient of inhibition curve) | Ki (α3 GlyR; calculated using the Cheng–Prussof equation) | Maximal Modulation (α3 GlyR; percentage change of glycine-evoked current) | alkaloid sensitivity of glycine-evoked currents (in words) (α1GlyR F63A) | alkaloid sensitivity of glycine-evoked currents (in words) (α1GlyR G160E) |
| --- | --- | --- | --- | --- | --- | --- | --- | --- | --- | --- | --- | --- | --- |
| C=C[C@]12CN(C)[C@@H]3[C@H]4CO[C@H](C[C@H]41)[C@]1(C(=O)Nc4ccccc41)[C@@H]32 [gelsemine] | ~40 µM | higher than 50 mg/kg | ~42 µM | 55 to 75 µM | insensitive | insensitive | – | – | – | – | – | – | – |
| NCC(=O)O [glycine, reference compound] | – | – | – | – | – | – | 150 ± 10 µM | – | – | – | – | – | – |
| C=C[C@@]12CN(C)[C@H]3C[C@]14C(=Nc1ccccc14)[C@H]1C[C@@H]2[C@@H]3CO1 [koumine] | – | higher than 50 mg/kg | – | – | – | – | – | 15.8 ± 4.6 µM | 0.9 ± 0.2 | 33.9 ± 15.8 µM | −87.3 ± 4.0% | not exert detectable effects | not exert detectable effects |
